≈ marks a conversion by molar mass, not a printed value. Entries after “also recorded” stand apart in the source; their conditions may differ.
Assays:
[1] = test system: PCF11 protein levels in HEK293FT cells; assay: PCF11 degradation by MAGE-A11, immunoblotting in HEK293FT cells; assay type: cell-based; conditions: 24 hours
Procedure: Cell culture and stable cell lines. HEK293FT, HeLa and DAOY cells were grown in DMEM (Gibco) supplemented with 10% (v/v) FBS (Hyclone), 2 mM L-glutamine, 100 units/ml penicillin, 100 units/ml streptomycin, and […] amphotericin B (Invitrogen). HEK293FT and DAOY cells were transfected with either HA-FLAG-vector, FLAG-MAGE-A11 wild-type or SBC mutants using Effectene (QIAGEN) according to the manufacturer's protocol in 6 cm^2 plates. After 48 hours, cells were selected with 1 μg/ml puromycin (Sigma) over 2 weeks.
(§1) Western Blotting and Antibodies. For western blotting, samples in SDS sample buffer were resolved on SDS-PAGE gels and then transferred to nitrocellulose membranes prior to blocking in TBST with 5% (w/v) milk powder or 3% (w/v) bovine serum albumin and probing with primary and secondary antibodies (GE Healthcare). Primary antibodies were: anti-Myc (Sigma, #C3956), anti-FLAG (Sigma, #F3165), anti-HUWE1 (Novus Biologicals, #NB 100-652), anti-PCF11 (Bethyl Laboratories, #A303-706A), anti-GAPDH (Cell Signaling Technology, #2118), anti-TRIM28 (Abcam, #ab22553), anti-AMPKa1 (Cell Signaling Technology, #2795) and anti-MMS19 (Proteintech, #16015-1-AP). Protein signal was visualized after addition of ECL detection reagent (GE Healthcare) according to manufacturer's instructions.

[2] = Solubility assay (μSOL Evolution, UV); assay type: physicochemical; conditions: 18 h at RT in buffer
Procedure: Solubility assays were carried out on a Biomek FX lab automation workstation (Beckman Coulter, Inc., Fullerton, CA) using SOL Evolution software (pION Inc., Woburn, MA). The detailed method is described as follows. 10 μl of 10 mM compound stock (in DMSO) was added to 190 μl 1-propanol to make a reference stock plate. 5 μl from this reference stock plate were mixed with 70 μl 1-propanol and 75 μl citrate phosphate-buffered saline (PBS; isotonic) to make the reference plate, and the UV spectrum (250-500 nm) of the reference plate was read. 6 μl of 10 mM test compound stock was added to 594 μl buffer in a 96-well storage plate and mixed. The storage plate was sealed and incubated at RT for 18 h. The suspension was then filtered through a 96-well filter plate (pION Inc., Woburn, MA). 75 μl of filtrate was mixed with 75 μl 1-propanol to make the sample plate, and the UV spectrum of the sample plate was read. Calculations were carried out with μSOL Evolution software based on the area under the curve (AUC) of the UV spectrum of the sample and reference plates. All compounds were tested in triplicate.

[3] = test system: MAGE-A11-knockout DAOY cells or those reconstituted with MAGE-A11; assay: Cell viability alamarBlue assay, DAOY cells; assay type: cell-based; conditions: MAGE-A11 expressing DAOY cells versus MAGE-A11-negative cells, 24 hours, listed as SJ521054
Procedure: Cell viability Assay. To assess cell viability after SJ521054 treatment, 1×10^4 cells/ml were treated with SJ521054 (0-40 μM) and incubated for 24 hours prior to changing the media and adding alamarBlue (Thermo Fisher Scientific) and incubating for 4 hours at 37° C. Plates were read by measuring the fluorescence with excitation wavelength at 540 nm and emission wavelength at 590 nm on an Enspire plate reader.

[4] = target: MAGE-A11 binding to PCF11 in FLAG-MAGE-A11 HEK293FT cell lysates (Homo sapiens (Human), UniProt P43364); assay: anti-FLAG pull-down (co-IP) of MAGE-A11:PCF11 in cell lysates; conditions: 100 μM, 24 hours, immunoblot for endogenous PCF11, listed as SJ521054
MAGE-A11 binding to PCF11 in FLAG-MAGE-A11 HEK293FT cell lysates, sequence (P43364 whole entry): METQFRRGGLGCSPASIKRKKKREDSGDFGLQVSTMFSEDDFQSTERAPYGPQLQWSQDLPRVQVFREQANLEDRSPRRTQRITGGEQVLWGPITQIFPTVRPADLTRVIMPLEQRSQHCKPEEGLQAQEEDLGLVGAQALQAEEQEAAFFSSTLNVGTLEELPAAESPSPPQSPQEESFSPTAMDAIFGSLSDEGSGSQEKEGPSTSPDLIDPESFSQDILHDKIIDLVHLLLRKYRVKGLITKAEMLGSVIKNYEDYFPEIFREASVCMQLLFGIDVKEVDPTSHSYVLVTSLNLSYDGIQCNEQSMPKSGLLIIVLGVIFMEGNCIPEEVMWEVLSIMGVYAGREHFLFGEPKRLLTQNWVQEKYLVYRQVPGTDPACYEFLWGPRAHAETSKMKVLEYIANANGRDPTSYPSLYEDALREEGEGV
Procedure: Immunoprecipitation. HEK293FT cells were plated in 6 cm^2 plates and transfected 24 hours later with Effectene (QIAGEN) according to the manufacturer's protocol. After 48 hours, cells were washed and scraped in cold PBS, spun down and resuspended in lysis buffer (50 mM Tris pH 7.4, 150 mM NaCl, 1 mM DTT, 0.1% (v/v) Triton X-100, 10 mM N-Ethylmaleimide and 1× protease inhibitor cocktail (Sigma)). Cell lysates were incubated with appropriate antibodies overnight at 4° C. and then with protein A beads for 2 hours at 4° C. Beads were then washed with lysis buffer three times and eluted with 2×SDS sample buffer.
as §1

FC(F)(F)c1ccc2c(NCCCNCc3ccc4[nH]ccc4c3)ccnc2c1 [SJ000521054-02, N^1-((1H-Indol-5-yl)methyl)-N^3-(7-(trifluoromethyl)quinolin-4-yl)propane-1,3-diamine]
PCF11 protein levels / PCF11 degradation by MAGE-A11 ([1]; MAGE-A11 expressing HEK293FT cells, listed as SJ521054): blocks PCF11 degradation by MAGE-A11; also recorded: stabilized PCF11 protein levels
PCF11 protein levels ([1]; vector control HEK293FT cells): no effect
Solubility [2]: 26.48 µM (≈ 10.6 µg/mL)
cell viability [3]: reduces viability of MAGE-A11 expressing DAOY cancer cells; also recorded: decreased the viability
MAGE-A11 binding to PCF11 in cell lysate (co-IP) [4]: inhibited MAGE-A11 binding to PCF11 in cell lysates
